From patent US20240002375A1, “2-(INDAZOL-5-YL)-6-(PIPERIDIN-4-YL)-1,7-NAPHTHYRIDINE DERIVATIVES AND RELATED COMPOUNDS AS MODULATORS FOR SPLICING NUCLEIC ACIDS AND FOR THE TRE” (REMIX THERAPEUTICS INC., priority 2020, published 2024)
Counter-ions that a name gives are not always drawn. Like-named read-outs stand apart in the source and are kept apart here.

Columns and labels:
Type in all cases: cell-based
Target C CJ mRNA = experiment: Gene panel canonical junction qPCR splicing assay, Target C; conditions: Table 4, read-out: Target C IC50 (decrease in CJ mRNA levels)
Outline: (§1)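 A673 or K562 cells treated with compound; canonical-junction mRNA measured by RT-qPCR with junction-spanning primer/probe sets, normalized to GAPDH, GUSB or PPIA and DMSO (2^−ΔΔCt). IC50 for CJ decrease from 4-parameter logistic fit of percentage response.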

HTT mRNA = experiment: Splicing assay (RT-qPCR) of HTT mRNA alternative junction (AJ) and canonical junction (CJ)
Outline: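 HTT splice switching read as formation of an alternative-exon junction (AJ) versus the canonical junction (CJ) by one-step RT-qPCR on cell lysates, with GAPDH/GUSB housekeeping normalisation in K562 and PPIA in A673. Compounds: 11-point 3-fold series up to 10 uM, ≤0.25% DMSO, 24 h at 37 °C.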

SMN2 CJ mRNA = experiment: Gene panel canonical junction qPCR splicing assay, SMN2; conditions: Table 4, read-out: SMN2 IC50 (decrease in CJ mRNA levels)
Outline: as §1

HTT CJ mRNA = experiment: Gene panel canonical junction qPCR splicing assay, HTT; conditions: Table 4, read-out: HTT IC50 (decrease in CJ mRNA levels)
Outline: as §1

[1] = decrease in CJ mRNA, A673 or K562 cells, 24 hours, read-out: HTT CJ IC50
[2] = increase in AJ mRNA, A673 or K562 cells, 24 hours, read-out: HTT AJ AC50

| SMILES | IC50 (Target C CJ mRNA) | IC50 (HTT mRNA; [1]) | AC50 (HTT mRNA; [2]) | IC50 (SMN2 CJ mRNA) | IC50 (HTT CJ mRNA) | AC50 (HTT mRNA; 24 h, read-out: HTT AJ AC50 (nM)) | IC50 (HTT mRNA; 24 h, read-out: HTT CJ IC50 (nM)) |
| --- | --- | --- | --- | --- | --- | --- | --- |
| Cn1cc2cc(-c3ccc4nc(N5CCC6(CCN6)C5)ccc4n3)c(O)cc2n1 (centres unmarked) [Compound 178, 5-(6-{1,6-diazaspiro[3.4]octan-6-yl}-1,5-naphthyridin-2-yl)-2-methylindazol-6-ol] | 1000 to 10000 nM | 100 to 1000 nM | 100 to 1000 nM | < 100 nM | 100 to 1000 nM | – | – |
| CCN[C@H]1CCN(c2ccc3nc(-c4cc5cn(C)nc5cc4O)ccc3n2)C1 [Compound 179] | 100 to 1000 nM | < 100 nM | < 100 nM | < 100 nM | < 100 nM | – | – |
| CCN[C@@H]1CCN(c2ccc3nc(-c4cc5cn(C)nc5cc4O)ccc3n2)C1 [Compound 180] | 100 to 1000 nM | < 100 nM | 100 to 1000 nM | < 100 nM | < 100 nM | – | – |
| Cn1cc2cc(-c3ccc4nc(N5CC[C@H](NCC(F)(F)F)C5)ccc4n3)c(O)cc2n1 [Compound 182, 2-methyl-5-{6-[(3S)-3-[(2,2,2-trifluoroethyl)amino]pyrrolidin-1-yl]-1,5-naphthyridin-2-yl}indazol-6-ol] | > 10000 nM | 1000 to 10000 nM | > 10000 nM | 1000 to 10000 nM | 1000 to 10000 nM | – | – |
| Cn1cc2cc(-c3ccc4nc(C5CCNCC5)ccc4n3)ccc2n1 [Compound 184, 2-(2-methylindazol-5-yl)-6-(piperidin-4-yl)-1,5-naphthyridine] | 100 to 1000 nM | 1000 to 10000 nM | 100 to 1000 nM | < 100 nM | 1000 to 10000 nM | – | – |
| Cn1cc2cc(-c3ccc4nc(C5CCNCC5)ccc4n3)cc(F)c2n1 [Compound 185, 2-(7-fluoro-2-methylindazol-5-yl)-6-(piperidin-4-yl)-1,5-naphthyridine] | 1000 to 10000 nM | 1000 to 10000 nM | 1000 to 10000 nM | 100 to 1000 nM | 1000 to 10000 nM | – | – |
| Cc1cn2nc(-c3ccc4nc(N5CCC(NC(C)(C)C)C5)ccc4n3)cc(C)c2n1 (centres unmarked) [Compound 186, N-tert-butyl-1-(6-{2,8-dimethylimidazo[1,2-b]pyridazin-6-yl}-1,5-naphthyridin-2-yl)pyrrolidin-3-amine] | < 100 nM | – | – | < 100 nM | < 100 nM | < 100 nM | < 100 nM |
| Cc1cn2nc(-c3ccc4nc(N5CCC(NC(C)(C)C)C5)ccc4n3)cc2c(C)n1 (centres unmarked) [Compound 187] | < 100 nM | < 100 nM | < 100 nM | < 100 nM | < 100 nM | – | – |
| Cn1cc2cc(-c3ccc4nc(N5CC[C@@H](NC6COC6)C5)ccc4n3)c(O)cc2n1 [Compound 188] | 1000 to 10000 nM | 100 to 1000 nM | 100 to 1000 nM | < 100 nM | 100 to 1000 nM | – | – |
| Cc1nc2cc(O)c(-c3ccc4nc(N5CCC(NC(C)(C)C)C5)ccc4n3)cc2s1 (centres unmarked) [Compound 190, 6-{6-[3-(tert-butylamino)pyrrolidin-1-yl]-1,5-naphthyridin-2-yl}-2-methyl-1,3-benzothiazol-5-ol; trifluoroacetic acid] | > 10000 nM | > 10000 nM | > 10000 nM | < 100 nM | > 10000 nM | – | – |
| Cc1c(O)c(-c2ccc3nc(N4CCC(NC(C)(C)C)C4)ccc3n2)cc2cn(C)nc12 (centres unmarked) [Compound 191, 5-{6-[3-(tert-butylamino)pyrrolidin-1-yl]-1,5-naphthyridin-2-yl}-2,7-dimethylindazol-6-ol hydrochloride] | > 10000 nM | < 100 nM | < 100 nM | > 10000 nM | > 10000 nM | – | – |
| CN1CCCC2(CCN2c2ccc3nc(-c4cc5cn(C)nc5cc4O)ccc3n2)C1 (centres unmarked) [Compound 192, 2-methyl-5-(6-{6-methyl-1,6-diazaspiro[3.5]nonan-1-yl}-1,5-naphthyridin-2-yl) indazol-6-ol] | > 10000 nM | > 10000 nM | > 10000 nM | > 10000 nM | > 10000 nM | – | – |
| Cn1cc2cc(-c3ccc4nc(C5CCNCC5)ccc4n3)c(F)cc2n1 [Compound 193, 2-(6-fluoro-2-methylindazol-5-yl)-6-(piperidin-4-yl)-1,5-naphthyridine] | 1000 to 10000 nM | 1000 to 10000 nM | 1000 to 10000 nM | 1000 to 10000 nM | 1000 to 10000 nM | – | – |
| Cn1cc2cc(-c3ccc4nc(N5CC[C@H](NCC6CC6)C5)ccc4n3)c(O)cc2n1 [Compound 194] | < 100 nM | < 100 nM | < 100 nM | < 100 nM | < 100 nM | – | – |
| Cn1cc2cc(-c3ccc4nc(N5CC[C@@H](NCC6CC6)C5)ccc4n3)c(O)cc2n1 [Compound 195] | 100 to 1000 nM | 100 to 1000 nM | < 100 nM | < 100 nM | 100 to 1000 nM | – | – |
| Cn1cc2cc(-c3ccc4nc(C5CCNCC5)ccc4n3)c(C(F)F)cc2n1 [Compound 196, 2-[6-(difluoromethyl)-2-methylindazol-5-yl]-6-(piperidin-4-yl)-1,5-naphthyridine] | > 10000 nM | > 10000 nM | > 10000 nM | 1000 to 10000 nM | > 10000 nM | – | – |

| SMILES | IC50 (Target C CJ mRNA) | IC50 (HTT mRNA; [1]) | AC50 (HTT mRNA; [2]) | IC50 (SMN2 CJ mRNA) | IC50 (HTT CJ mRNA) | AC50 (HTT mRNA; 24 h, read-out: HTT AJ AC50 (nM)) | IC50 (HTT mRNA; 24 h, read-out: HTT CJ IC50 (nM)) |
| --- | --- | --- | --- | --- | --- | --- | --- |
| Cn1cc2cc(-c3ccc4nc(N5CC[C@H](NC6CC6)C5)ccc4n3)c(O)cc2n1 [Compound 197, 5-{6-[(35)-3-(cyclopropylamino)pyrrolidin-1-yl]-1,5-naphthyridin-2-yl}-2-methylindazol-6-ol] | 100 to 1000 nM | < 100 nM | < 100 nM | < 100 nM | < 100 nM | – | – |
| Cn1cc2cc(-c3ccc4nc(N5CC[C@@H](NC6CC6)C5)ccc4n3)c(O)cc2n1 [Compound 198] | 100 to 1000 nM | < 100 nM | < 100 nM | < 100 nM | < 100 nM | – | – |
| Cn1cc2nc(-c3ccc4nc(C5CCNCC5)ccc4n3)ccc2n1 [Compound 199, 2-{2-methylpyrazolo[4,3-b]pyridin-5-yl}-6-(piperidin-4-yl)-1,5-naphthyridine] | 100 to 1000 nM | 100 to 1000 nM | 100 to 1000 nM | 100 to 1000 nM | 100 to 1000 nM | – | – |
| Cn1cc2cc(-c3ccc4nc(C5CCNCC5)ccc4n3)ncc2n1 [Compound 200] | 1000 to 10000 nM | 1000 to 10000 nM | 1000 to 10000 nM | 1000 to 10000 nM | 1000 to 10000 nM | – | – |
| Cc1cn2cc(-c3ccc4nc(N5CCC(NC(C)(C)C)C5)ccc4n3)cc(C)c2n1 (centres unmarked) [Compound 201] | 100 to 1000 nM | 100 to 1000 nM | 100 to 1000 nM | < 100 nM | 100 to 1000 nM | – | – |
| Cn1cc2cc(-c3ccc4nc(N5CCC(NC(C)(C)C)C5)ccc4n3)c(O)c(F)c2n1 (centres unmarked) [Compound 202] | < 100 nM | < 100 nM | < 100 nM | > 10000 nM | < 100 nM | – | – |
| Cc1cn2nc(-c3ccc4nc(N5CCC(NC(C)(C)C)C5)ccc4n3)c(O)c2c(C)n1 (centres unmarked) [Compound 203, 2-{6-[3-(tert-butylamino)pyrrolidin-1-yl]-1,5-naphthyridin-2-yl}-4,6-dimethylpyrazolo[1,5-a]pyrazin-3-ol] | < 100 nM | < 100 nM | < 100 nM | < 100 nM | < 100 nM | – | – |
| Cn1cc2cc(-c3ccc4nc(C5CCNCC5)ccc4n3)c(C#N)cc2n1 [Compound 204, 2-methyl-5-[6-(piperidin-4-yl)-1,5-naphthyridin-2-yl]indazole-6-carbonitrile] | > 10000 nM | 1000 to 10000 nM | 1000 to 10000 nM | 100 to 1000 nM | 1000 to 10000 nM | – | – |
| Cn1cc2nc(-c3ccc4nc(C5CCNCC5)ccc4n3)c(F)cc2n1 [Compound 205, 2-{6-fluoro-2-methylpyrazolo[4,3-b]pyridin-5-yl}-6-(piperidin-4-yl)-1,5-naphthyridine] | 1000 to 10000 nM | 1000 to 10000 nM | 1000 to 10000 nM | 1000 to 10000 nM | 1000 to 10000 nM | – | – |
| Cc1cn2cc(-c3ccc4nc(N5CCC(NC(C)(C)C)C5)ccc4n3)nc(C)c2n1 (centres unmarked) [Compound 206] | 1000 to 10000 nM | 1000 to 10000 nM | 1000 to 10000 nM | 1000 to 10000 nM | 1000 to 10000 nM | – | – |
| Cn1cc2nc(-c3ccc4nc(N5CCC(NC(C)(C)C)C5)ccc4n3)c(F)cc2n1 (centres unmarked) [Compound 207] | 1000 to 10000 nM | 1000 to 10000 nM | 1000 to 10000 nM | 1000 to 10000 nM | 1000 to 10000 nM | – | – |
| Cc1nc(-c2ccc3nc(N4CCC(NC(C)(C)C)C4)ccc3n2)cc2cn(C)nc12 (centres unmarked) [Compound 208] | > 10000 nM | > 10000 nM | > 10000 nM | 1000 to 10000 nM | > 10000 nM | – | – |
| Cc1nc2cc(O)c(-c3ccc4nc(N5CC[C@H](NC(C)(C)C)C5)ccc4n3)cc2o1 [Compound 209] | < 100 nM | < 100 nM | < 100 nM | < 100 nM | < 100 nM | – | – |
| Cc1nc2cc(O)c(-c3ccc4nc(N5CC[C@@H](NC(C)(C)C)C5)ccc4n3)cc2o1 [Compound 210] | 1000 to 10000 nM | < 100 nM | < 100 nM | < 100 nM | < 100 nM | – | – |
| Cn1cc2cc(-c3cc4ccc(N5CCC(NC(C)(C)C)C5)nc4cn3)c(O)cc2n1 (centres unmarked) [Compound 218, 5-{2-[3-(tert-butylamino)pyrrolidin-1-yl]-1,7-naphthyridin-6-yl}-2-methylindazol-6-ol] | > 10000 nM | > 10000 nM | > 10000 nM | 100 to 1000 nM | > 10000 nM | – | – |
